Earlier results in patent US20260256858A1, “Amanita Muscaria Mushroom Extracts and Products, and Improved Processes for Producing Extracts of Amanita Muscaria Mushrooms at Kilogram Scale” (priority 2023, published 2026).

Legend:
[1] = after ingestion of Amanita mushrooms
[2] = IV injection, 8 μmol/kg, 150 g rat

N[C@H](C(=O)O)c1cc(=O)[nH]o1 [ibotenic acid, (S)-2-amino-2-(3-hydroxyisoxazol-5-yl) acetic acid]
detection in urine after ingestion [1]: detected within an hour after ingestion

NCc1cc(=O)[nH]o1 [muscimol, 5-(aminomethyl)-1,2-oxazol-3 (2H)-one]
brain regions with the highest muscimol concentration (IV injection of 3H-muscimol, 8 μmol/kg, rat): the substantia nigra, the colliculi and the hypothalamus
amount of the dose injected that crossed to the brain [2]: approximately 0.02%
muscimol concentration in brain [2]: approximately 200 pmol/g tissue
time until blood concentration was below limits of detection (after intravenous injection, rat): ≤ 180 min
distribution in corneum stratum compared to hypothalamus, hippocampus and cortex (intracerebroventricular injection, 1200 nmol/kg, rat): approximately 2 times higher
tolerability (adverse effects or toxicity) (intravenous injection of muscimol, 8 μmol/kg, rat): well-tolerated
detection in urine after ingestion [1]: detected within an hour after ingestion
